Consider one molecule from US20120277286A1, “COMPOSITIONS AND METHODS FOR THE TREATMENT OR PREVENTION OF MITOCHONDRIAL DISEASES” (The Government of the USA, as represented by the Secretary, …, priority 2009, published 2012).

This assay has as its system M17 human neuroblastoma cells. Description: YFP-Parkin recruitment to mitochondria in M17 cells. In kind it is cell-based. As to conditions: M17 cells stably transduced with control shRNA (CCCP line) or PINK1 shRNA, 10 μM CCCP, 3 hours. The text has this: HeLa YFP-Parkin, PINK1+/+ SV40 transformed MEFs cells, PINK1−/− SV40 transformed MEF, M17 neuroblastoma control shRNA, M17 neuroblastoma PINK1, and Mfn1/2−/− MEF cell lines have been described previously (Narendra (2008) J Cell Biol 183: 795-803). PINK1+/+ and PINK1−/− primary MEFs were isolated from embryos using a standard protocol (Gautier (2008) Proc Natl Acad Sci USA 105: 11364-11369). Parkin+/+ and Parkin−/− transformed MEFs were created by isolation of primary cells from embryos of B6.129S4-Park2tm1Shn/J mice (Jackson Labs), using a standard protocol (Gautier (2008) Proc Natl Acad Sci USA 105: 11364-11369), followed by retroviral transduction of SV40 (Applied Biological Materials, Inc.). YFP-Parkin, YFPParkin mutants, mCherry-Parkin, PINK1-YFP, PINK1 KD-YFP, PINK1 Δ1-110-YFP, and Opa3-PINK1 Δ1-110-YFP are in C1 or N1 Clontech vectors. PINK1WT-V5, PINK1 KD-V5, and PINK1 Δ1-156-V5 are in pDest40 vector (Invitrogen). PINK1 patient mutations are in pLenti-V5 vector (Invitrogen). PINK1-myc is in a pCMBTNT vector (Promega).
Confocal microscopy of fixed samples, scoring of Parkin recruitment and Parkininduced mitophagy, and live cell imaging were performed as described previously (Narendra (2008) J Cell Biol 183: 795-803). Experiments in Mfn1/2 null cells were performed as described previously with minor modifications. […]

In the case of `N#CC(C#N)=NNc1cccc(Cl)c1` [CCCP, carbonyl cyanide m-chlorophenylhydrazone], the “cells with mitochondrial YFP-Parkin” value was found to be 67.3±3.1%.
